From the Kinase Knowledgebase extract (Sharma et al. 2016) come the findings set out here.

SMILES strings stand for the structures.

In test [1] the target is PIK3CD (Human) (UniProt O00329). The test is described as follows: Evaluation of PIK3CD inhibitors on Basophil Function by Histamine Release Assay. As to conditions: basophils.
Test [2] deals with PIK3CD (mouse). Kind of test: Assessment of Stimulus Induced B Cell Proliferation. The note with it: b cells.
For the next test, the target named is PIK3CA (UniProt P42336). Kind of test: Inhibition of PIK3CA Kinase Activity. As to conditions: concentration not given here.
Sequence of PIK3CA (P42336 whole entry, looked up): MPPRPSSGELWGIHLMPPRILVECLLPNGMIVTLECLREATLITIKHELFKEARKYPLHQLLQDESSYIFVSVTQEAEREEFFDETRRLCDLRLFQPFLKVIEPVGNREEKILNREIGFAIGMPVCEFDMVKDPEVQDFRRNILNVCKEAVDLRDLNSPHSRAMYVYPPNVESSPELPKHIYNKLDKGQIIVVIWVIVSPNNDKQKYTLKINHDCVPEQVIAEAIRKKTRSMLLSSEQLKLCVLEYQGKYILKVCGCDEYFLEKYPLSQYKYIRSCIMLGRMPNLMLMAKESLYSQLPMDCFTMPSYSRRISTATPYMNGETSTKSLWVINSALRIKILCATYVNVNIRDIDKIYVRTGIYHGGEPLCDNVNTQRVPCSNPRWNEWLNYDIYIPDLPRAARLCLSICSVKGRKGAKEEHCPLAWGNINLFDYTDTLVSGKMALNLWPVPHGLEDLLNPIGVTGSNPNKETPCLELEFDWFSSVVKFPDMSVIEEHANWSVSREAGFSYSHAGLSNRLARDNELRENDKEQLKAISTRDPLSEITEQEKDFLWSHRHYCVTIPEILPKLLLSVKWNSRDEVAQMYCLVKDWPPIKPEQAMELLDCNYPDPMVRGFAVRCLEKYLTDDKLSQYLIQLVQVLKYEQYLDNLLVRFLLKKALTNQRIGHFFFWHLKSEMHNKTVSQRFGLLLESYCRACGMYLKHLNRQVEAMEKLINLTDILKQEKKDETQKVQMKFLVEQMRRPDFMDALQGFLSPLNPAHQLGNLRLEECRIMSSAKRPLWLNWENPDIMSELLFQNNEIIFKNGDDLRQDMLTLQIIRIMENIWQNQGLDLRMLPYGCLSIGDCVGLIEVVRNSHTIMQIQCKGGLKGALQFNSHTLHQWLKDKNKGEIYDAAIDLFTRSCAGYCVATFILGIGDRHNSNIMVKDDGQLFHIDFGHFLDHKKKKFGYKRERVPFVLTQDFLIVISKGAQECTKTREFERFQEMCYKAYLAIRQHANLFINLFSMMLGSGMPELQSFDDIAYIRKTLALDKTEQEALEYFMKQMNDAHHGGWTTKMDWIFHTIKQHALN
In the next test the target is PIK3CD (UniProt O00329). The test is described as follows: Inhibition of PIK3CD Kinase Activity.
Sequence of PIK3CD (O00329 whole entry, looked up): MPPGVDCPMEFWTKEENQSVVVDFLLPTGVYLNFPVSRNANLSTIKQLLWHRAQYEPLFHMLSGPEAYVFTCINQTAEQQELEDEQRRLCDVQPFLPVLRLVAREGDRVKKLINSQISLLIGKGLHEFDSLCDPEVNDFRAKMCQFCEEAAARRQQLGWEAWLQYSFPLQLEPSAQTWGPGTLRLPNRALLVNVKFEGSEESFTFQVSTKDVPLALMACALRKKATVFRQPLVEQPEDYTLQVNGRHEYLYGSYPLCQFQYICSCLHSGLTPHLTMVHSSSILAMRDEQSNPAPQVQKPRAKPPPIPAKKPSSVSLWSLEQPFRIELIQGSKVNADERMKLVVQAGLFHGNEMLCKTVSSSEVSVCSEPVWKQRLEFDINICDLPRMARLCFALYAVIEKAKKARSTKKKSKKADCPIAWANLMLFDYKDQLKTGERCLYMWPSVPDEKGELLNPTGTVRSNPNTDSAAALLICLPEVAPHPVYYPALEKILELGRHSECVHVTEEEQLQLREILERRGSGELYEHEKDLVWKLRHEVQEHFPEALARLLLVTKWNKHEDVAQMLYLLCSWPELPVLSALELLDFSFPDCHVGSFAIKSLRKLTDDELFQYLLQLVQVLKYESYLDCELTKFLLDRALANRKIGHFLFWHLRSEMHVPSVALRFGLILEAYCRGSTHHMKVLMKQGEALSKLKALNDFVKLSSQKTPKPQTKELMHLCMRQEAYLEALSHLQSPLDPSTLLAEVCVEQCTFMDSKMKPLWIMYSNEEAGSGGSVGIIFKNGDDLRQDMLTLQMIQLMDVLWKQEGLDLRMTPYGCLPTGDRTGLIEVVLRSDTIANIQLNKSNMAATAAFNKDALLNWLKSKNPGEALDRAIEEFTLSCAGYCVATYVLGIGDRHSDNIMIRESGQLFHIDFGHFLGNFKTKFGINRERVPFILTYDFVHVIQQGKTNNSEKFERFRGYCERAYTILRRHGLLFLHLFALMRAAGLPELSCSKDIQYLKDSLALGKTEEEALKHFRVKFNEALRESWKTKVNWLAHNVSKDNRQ
For another test, the target named is PIK3CB (UniProt P42338). The test is described as follows: Inhibition of PIK3CB Kinase Activity. The note with it: for inhibition: concentration not given here.
Sequence of PIK3CB (P42338 whole entry, looked up): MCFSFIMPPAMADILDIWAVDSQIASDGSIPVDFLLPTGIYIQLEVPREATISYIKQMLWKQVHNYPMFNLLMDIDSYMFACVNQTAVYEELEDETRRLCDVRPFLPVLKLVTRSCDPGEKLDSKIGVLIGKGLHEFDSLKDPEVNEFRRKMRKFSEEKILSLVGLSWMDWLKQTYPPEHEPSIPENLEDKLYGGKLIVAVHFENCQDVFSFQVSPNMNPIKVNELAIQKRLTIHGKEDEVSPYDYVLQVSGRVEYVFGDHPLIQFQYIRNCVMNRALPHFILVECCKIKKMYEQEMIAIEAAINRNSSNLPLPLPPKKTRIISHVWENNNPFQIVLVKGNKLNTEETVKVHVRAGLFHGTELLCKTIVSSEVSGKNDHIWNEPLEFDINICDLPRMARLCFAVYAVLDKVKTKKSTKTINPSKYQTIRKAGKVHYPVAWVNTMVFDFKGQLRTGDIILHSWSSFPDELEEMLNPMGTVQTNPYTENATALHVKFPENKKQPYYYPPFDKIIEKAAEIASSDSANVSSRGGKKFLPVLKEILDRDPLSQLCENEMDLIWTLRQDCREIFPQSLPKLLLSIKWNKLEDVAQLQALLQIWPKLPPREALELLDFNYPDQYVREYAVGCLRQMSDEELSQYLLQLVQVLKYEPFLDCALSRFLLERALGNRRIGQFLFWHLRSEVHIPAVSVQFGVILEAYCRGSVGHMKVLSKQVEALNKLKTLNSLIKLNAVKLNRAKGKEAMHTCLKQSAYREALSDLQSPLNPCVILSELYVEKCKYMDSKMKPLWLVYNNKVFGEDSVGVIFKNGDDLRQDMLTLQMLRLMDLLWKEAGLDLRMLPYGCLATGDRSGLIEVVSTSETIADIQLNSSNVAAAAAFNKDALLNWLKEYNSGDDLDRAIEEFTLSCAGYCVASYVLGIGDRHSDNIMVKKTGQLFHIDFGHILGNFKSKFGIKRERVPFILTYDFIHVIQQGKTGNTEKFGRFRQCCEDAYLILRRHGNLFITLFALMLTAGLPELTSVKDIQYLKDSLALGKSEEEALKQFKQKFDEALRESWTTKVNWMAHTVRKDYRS
Test [3] deals with PIK3CD (Human) (UniProt O00329). The test is described as follows: Evaluation of PIK3CD inhibitors on Elastase Release in Human PMN Cells.
Test [4] shares this target. The test is described as follows: Assessment of Stimulus Induced TCE Cell Proliferation. As to conditions: t cells.
The target of another test is PIK3CG (UniProt P48736). Kind of test: Inhibition of PIK3CG Kinase Activity. The note with it: concentration not given here.
Sequence of PIK3CG (P48736 whole entry, looked up): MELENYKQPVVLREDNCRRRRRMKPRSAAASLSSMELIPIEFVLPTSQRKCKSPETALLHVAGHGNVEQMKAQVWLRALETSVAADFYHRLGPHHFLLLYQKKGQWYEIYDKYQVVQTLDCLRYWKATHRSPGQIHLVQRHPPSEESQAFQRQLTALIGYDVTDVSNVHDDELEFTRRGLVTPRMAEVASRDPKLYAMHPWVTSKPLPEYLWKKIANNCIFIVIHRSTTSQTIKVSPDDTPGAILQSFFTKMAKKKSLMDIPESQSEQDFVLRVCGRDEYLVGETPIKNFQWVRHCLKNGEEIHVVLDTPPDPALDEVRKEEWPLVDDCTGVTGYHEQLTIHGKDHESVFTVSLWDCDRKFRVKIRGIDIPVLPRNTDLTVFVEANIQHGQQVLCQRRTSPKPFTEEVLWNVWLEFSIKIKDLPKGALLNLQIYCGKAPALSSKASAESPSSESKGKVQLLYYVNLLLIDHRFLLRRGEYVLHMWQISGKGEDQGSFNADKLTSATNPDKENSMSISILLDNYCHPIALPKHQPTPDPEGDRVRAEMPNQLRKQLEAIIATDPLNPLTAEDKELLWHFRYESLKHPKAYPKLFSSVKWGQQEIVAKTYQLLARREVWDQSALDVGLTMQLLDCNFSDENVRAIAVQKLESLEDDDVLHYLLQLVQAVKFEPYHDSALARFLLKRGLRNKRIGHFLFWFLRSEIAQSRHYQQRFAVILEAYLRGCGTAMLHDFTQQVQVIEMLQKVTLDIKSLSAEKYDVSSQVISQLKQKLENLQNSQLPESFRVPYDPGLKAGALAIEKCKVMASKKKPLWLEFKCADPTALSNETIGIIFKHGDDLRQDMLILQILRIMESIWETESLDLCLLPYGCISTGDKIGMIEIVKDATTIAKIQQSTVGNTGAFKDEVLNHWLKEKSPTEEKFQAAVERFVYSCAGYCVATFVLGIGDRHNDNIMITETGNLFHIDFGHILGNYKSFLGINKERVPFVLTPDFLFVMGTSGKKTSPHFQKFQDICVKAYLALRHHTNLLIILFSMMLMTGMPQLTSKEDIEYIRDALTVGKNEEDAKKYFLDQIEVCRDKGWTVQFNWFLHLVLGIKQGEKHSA
Test [5] has as its target PIK3CD (Human) (UniProt O00329). Kind of test: Assessment of Cell Proliferation in KU812 Cells.
Test [6] has the same target. The test is described as follows: Evaluation of PIK3CD inhibitors on Neutrophil Migration. As to conditions: pmn.
The test system of test [7] is PIK3CD (mouse). Kind of test: Evaluation of PIK3CD inhibitors on Osteoclast Function. The note with it: bone marrow, dose or concentration not given here.
Test [8] addresses PIK3CD (Human) (UniProt O00329). Kind of test: Assessment of RWLeu4 Cell Proliferation.

Sequence of PIK3CD (Human) (O00329 whole entry, looked up): as the sequence (O00329 whole entry, looked up) above

For orientation: inhibition means the drop in the measured response relative to a control, in per cent. A lower inhibition goes with a weak effect. The term EC50 denotes the concentration needed to bring the measured effect to its halfway point. A lower EC50 goes with greater potency. Molecule `O=c1cc(N2CCOCC2)oc2c(-c3ccccc3)cccc12` displayed an inhibition at PIK3CD (Human) [1] (concentration not given here) of 100%. Further, the EC50 with PIK3CD (mouse) [2] was found to be 900 nM.

The term IC50 denotes the point on the concentration scale where inhibition reaches its midpoint. A lower IC50 goes with greater potency. Take `O=c1c2cccc(C(F)(F)F)c2nc(CSc2ncnc3[nH]cnc23)n1-c1ccccc1Cl`: the figures for the inhibition on PIK3CA and on PIK3CB were 12% and 7%, respectively. On PIK3CD, this molecule registered an IC50 of 4200 nM.

Take `Nc1ncnc2c1ncn2Cc1nc2cccc(F)c2c(=O)n1-c1ccccc1Cl`: the EC50 at PIK3CD (Human) [3] was 4300 nM; at PIK3CD (Human) [4], 3900 nM; in the test on PIK3CD (mouse) [2], 700 nM. For the same molecule, the results for the inhibition against PIK3CG and against PIK3CB were 9% and 18%, respectively. The molecule also yielded an IC50 against PIK3CB of 46000 nM.

With `O=c1c2ccccc2nc(CSc2ncnc3[nH]cnc23)n1-c1ccccc1Cl`, the EC50 on PIK3CD (Human) [5] was 2000 nM; at PIK3CD (Human) [3], 2200 nM; on PIK3CD (Human) [6], 1000 to 5000 nM; at PIK3CD (Human) [4], 5500 nM; on PIK3CD (Human) [8] it was 2000 nM; in the test with PIK3CD (mouse) [2], 900 nM. The same molecule returned an inhibition in the test on PIK3CD (mouse) [7] of 99%.

As to `Cc1cccc2nc(CSc3ncnc4[nH]cnc34)n(-c3ccccc3Cl)c(=O)c12`, the EC50 is 200 nM on PIK3CD (Human) [3]; 300 nM at PIK3CD (Human) [6]; 3500 nM on PIK3CD (Human) [4]; 25 nM at PIK3CD (Human) [1]; 300 nM in the test on PIK3CD (mouse) [2].

In the case of `O=c1c2c(F)cccc2nc(CSc2ncnc3[nH]cnc23)n1-c1ccccc1Cl`, the EC50 worked out at 1300 nM on PIK3CD (Human) [3], 2000 nM on PIK3CD (Human) [6], 1800 nM on PIK3CD (Human) [4] and 1200 nM in the test on PIK3CD (mouse) [2]. The same molecule displayed an inhibition against PIK3CG of 83%.
